{"source": "PubChem BioAssay AID1259407", "about": "(Chemical Carcinogenesis Research Information System (CCRIS), 2018)", "tested_on": "CCRIS mutagenicity, Ames/micronucleus/aberration tests", "assay": "CCRIS mutagenicity studies", "key": {"[1]": {"settings": "Test System: AMES SALMONELLA TYPHIMURIUM, Strain/Indicator: TA100, Metabolic Activation: NONE, Method: STANDARD PLATE"}, "[2]": {"settings": "Test System: AMES SALMONELLA TYPHIMURIUM, Strain/Indicator: TA98, Metabolic Activation: NONE, Method: PREINCUBATION"}, "[3]": {"settings": "Test System: AMES SALMONELLA TYPHIMURIUM, Strain/Indicator: TA100, Metabolic Activation: NONE, Method: PREINCUBATION"}, "[4]": {"settings": "Test System: AMES SALMONELLA TYPHIMURIUM, Strain/Indicator: TA1535, Metabolic Activation: NONE, Method: PREINCUBATION"}, "[5]": {"settings": "Test System: AMES SALMONELLA TYPHIMURIUM, Strain/Indicator: TA1537, Metabolic Activation: NONE, Method: PREINCUBATION"}}, "note": "Active and inactive are the calls of the source. How the calls were made is not given here."}
{"molecule": "NC(=O)N(Cc1ccccc1)N=O", "values": [{"measurement": "mutagenic call", "setting": "Test System: AMES SALMONELLA TYPHIMURIUM, Strain/Indicator: TA100, Metabolic Activation: NONE, Method: LIQUID INCUBATION", "value": "active; positive"}, {"measurement": "mutagenic call", "setting": "Test System: AMES SALMONELLA TYPHIMURIUM, Strain/Indicator: TA1535, Metabolic Activation: NONE, Method: LIQUID INCUBATION", "value": "inactive; negative"}]}
{"molecule": "ClCc1cc2cc3ccccc3c3ccc4cccc1c4c23", "values": [{"measurement": "mutagenic call", "setting": "Test System: AMES SALMONELLA TYPHIMURIUM, Strain/Indicator: TA98, Metabolic Activation: NONE, Method: STANDARD PLATE", "value": "active; positive"}, {"measurement": "mutagenic call", "setting": "[1]", "value": "active; positive"}]}
{"molecule": "O=[N+]([O-])c1cccc(Cl)c1Cl", "values": [{"measurement": "mutagenic call", "setting": "Test System: AMES SALMONELLA TYPHIMURIUM, Strain/Indicator: TA98, Metabolic Activation: HAMSTER, LIVER, S-9, AROCLOR 1254, Method: PREINCUBATION", "value": "inactive; negative"}, {"measurement": "mutagenic call", "setting": "[2]", "value": "inactive; negative"}, {"measurement": "mutagenic call", "setting": "Test System: AMES SALMONELLA TYPHIMURIUM, Strain/Indicator: TA98, Metabolic Activation: RAT, LIVER, S-9, AROCLOR 1254, Method: PREINCUBATION", "value": "inactive; negative"}, {"measurement": "mutagenic call", "setting": "Test System: AMES SALMONELLA TYPHIMURIUM, Strain/Indicator: TA100, Metabolic Activation: HAMSTER, LIVER, S-9, AROCLOR 1254, Method: PREINCUBATION", "value": "inactive; negative"}, {"measurement": "mutagenic call", "setting": "[3]", "value": "inactive; negative"}, {"measurement": "mutagenic call", "setting": "[1]", "value": "inactive; negative"}, {"measurement": "mutagenic call", "setting": "Test System: AMES SALMONELLA TYPHIMURIUM, Strain/Indicator: TA100, Metabolic Activation: RAT, LIVER, S-9, AROCLOR 1254, Method: PREINCUBATION", "value": "inactive; negative"}, {"measurement": "mutagenic call", "setting": "Test System: AMES SALMONELLA TYPHIMURIUM, Strain/Indicator: TA1535, Metabolic Activation: HAMSTER, LIVER, S-9, AROCLOR 1254, Method: PREINCUBATION", "value": "inactive; negative"}, {"measurement": "mutagenic call", "setting": "[4]", "value": "inactive; negative"}, {"measurement": "mutagenic call", "setting": "Test System: AMES SALMONELLA TYPHIMURIUM, Strain/Indicator: TA1535, Metabolic Activation: RAT, LIVER, S-9, AROCLOR 1254, Method: PREINCUBATION", "value": "inactive; negative"}, {"measurement": "mutagenic call", "setting": "Test System: AMES SALMONELLA TYPHIMURIUM, Strain/Indicator: TA1537, Metabolic Activation: HAMSTER, LIVER, S-9, AROCLOR 1254, Method: PREINCUBATION", "value": "inactive; negative"}, {"measurement": "mutagenic call", "setting": "[5]", "value": "inactive; negative"}, {"measurement": "mutagenic call", "setting": "Test System: AMES SALMONELLA TYPHIMURIUM, Strain/Indicator: TA1537, Metabolic Activation: RAT, LIVER, S-9, AROCLOR 1254, Method: PREINCUBATION", "value": "inactive; negative"}]}
{"molecule": "CCOc1cc(C=O)ccc1O", "values": [{"measurement": "mutagenic call", "setting": "Test System: AMES SALMONELLA TYPHIMURIUM, Strain/Indicator: TA97, Metabolic Activation: NONE, Method: PREINCUBATION", "value": "inactive; negative"}, {"measurement": "mutagenic call", "setting": "Test System: AMES SALMONELLA TYPHIMURIUM, Strain/Indicator: TA97, Metabolic Activation: RAT, LIVER, S-9, AROCLOR 1254, Method: PREINCUBATION", "value": "inactive; negative"}, {"measurement": "mutagenic call", "setting": "[2]", "value": "inactive; negative"}, {"measurement": "mutagenic call", "setting": "Test System: AMES SALMONELLA TYPHIMURIUM, Strain/Indicator: TA98, Metabolic Activation: RAT, LIVER, S-9, PHENOBARBITAL AND BETA-NAPHTHOFLAVONE, Method: PREINCUBATION", "value": "inactive; negative"}, {"measurement": "mutagenic call", "setting": "[3]", "value": "inactive; negative"}, {"measurement": "mutagenic call", "setting": "Test System: AMES SALMONELLA TYPHIMURIUM, Strain/Indicator: TA100, Metabolic Activation: RAT, LIVER, S-9, PHENOBARBITAL AND BETA-NAPHTHOFLAVONE, Method: PREINCUBATION", "value": "inactive; negative"}, {"measurement": "mutagenic call", "setting": "Test System: AMES SALMONELLA TYPHIMURIUM, Strain/Indicator: TA102, Metabolic Activation: NONE, Method: PREINCUBATION", "value": "inactive; negative"}, {"measurement": "mutagenic call", "setting": "Test System: AMES SALMONELLA TYPHIMURIUM, Strain/Indicator: TA102, Metabolic Activation: RAT, LIVER, S-9, AROCLOR 1254, Method: PREINCUBATION", "value": "inactive; negative"}, {"measurement": "mutagenic call", "setting": "Test System: AMES SALMONELLA TYPHIMURIUM, Strain/Indicator: TA102, Metabolic Activation: RAT, LIVER, S-9, PHENOBARBITAL AND BETA-NAPHTHOFLAVONE, Method: PREINCUBATION", "value": "inactive; negative"}, {"measurement": "mutagenic call", "setting": "Test System: AMES SALMONELLA TYPHIMURIUM, Strain/Indicator: TA104, Metabolic Activation: NONE, Method: PREINCUBATION", "value": "inactive; negative"}, {"measurement": "mutagenic call", "setting": "Test System: AMES SALMONELLA TYPHIMURIUM, Strain/Indicator: TA104, Metabolic Activation: RAT, LIVER, S-9, PHENOBARBITAL AND BETA-NAPHTHOFLAVONE, Method: PREINCUBATION", "value": "inactive; negative"}, {"measurement": "mutagenic call", "setting": "[4]", "value": "inactive; negative"}, {"measurement": "mutagenic call", "setting": "Test System: AMES SALMONELLA TYPHIMURIUM, Strain/Indicator: TA1535, Metabolic Activation: RAT, LIVER, S-9, PHENOBARBITAL AND BETA-NAPHTHOFLAVONE, Method: PREINCUBATION", "value": "inactive; negative"}, {"measurement": "mutagenic call", "setting": "[5]", "value": "inactive; negative"}, {"measurement": "mutagenic call", "setting": "Test System: AMES SALMONELLA TYPHIMURIUM, Strain/Indicator: TA1537, Metabolic Activation: RAT, LIVER, S-9, PHENOBARBITAL AND BETA-NAPHTHOFLAVONE, Method: PREINCUBATION", "value": "inactive; negative"}, {"measurement": "mutagenic call", "setting": "Test System: E. COLI, Strain/Indicator: WP2UVRA/PKM101, Metabolic Activation: NONE, Method: PREINCUBATION", "value": "inactive; negative"}, {"measurement": "mutagenic call", "setting": "Test System: E. COLI, Strain/Indicator: WP2UVRA/PKM101, Metabolic Activation: RAT, LIVER, S-9, PHENOBARBITAL AND BETA-NAPHTHOFLAVONE, Method: PREINCUBATION", "value": "inactive; negative"}, {"measurement": "mutagenic call", "setting": "Test System: E. COLI, Strain/Indicator: WP2UVRA, Metabolic Activation: NONE, Method: PREINCUBATION", "value": "inactive; negative"}, {"measurement": "mutagenic call", "setting": "Test System: E. COLI, Strain/Indicator: WP2UVRA, Metabolic Activation: RAT, LIVER, S-9, PHENOBARBITAL AND BETA-NAPHTHOFLAVONE, Method: PREINCUBATION", "value": "inactive; negative"}]}
{"molecule": "Fc1cnc2c(ccc3ncc(F)cc32)c1", "values": [{"measurement": "mutagenic call", "setting": "Test System: AMES SALMONELLA TYPHIMURIUM, Strain/Indicator: TA100, Metabolic Activation: RAT, LIVER, S-9, PHENOBARBITAL AND 5,6-BENZOFLAVONE, Method: PREINCUBATION", "value": "inactive; negative"}]}
